Columns and labels:
[1] = tested on: apple mildew pathogen Podosphaera leucotricha; assay: Podosphaera test (apple)/protective; type: in vivo; settings: 240 h, protective, application rate 100 g/ha, evaluation 10 days after inoculation, read-out: efficacy
Procedure: (§1) Podosphaera test (apple)/protective [table] To produce a suitable preparation of active compound, 1 part by weight of active compound is mixed with the stated amounts of solvent and emulsifier, and the concentrate is diluted with water to the desired concentration. To test for protective activity, young plants are sprayed with the preparation of active compound at the stated application rate. After the spray coating has dried on, the plants are inoculated with an aqueous spore suspension of the apple mildew pathogen Podosphaera leucotricha. The plants are then placed in a greenhouse at about 23° C. and about 70% relative atmospheric humidity.

[2] = tested on: army worm (Spodoptera frugiperda); assay: Spodoptera frugipereda test/synthetic feed; type: in vivo; settings: larva (L3) on synthetic feed, concentration of active compound 500 ppm
Procedure: Spodoptera frugipereda test/synthetic feed [table] To produce a suitable preparation of active compound, 1 part by weight of active compound is mixed with the stated amount of solvent and the stated amount of emulsifier, and the concentrate is diluted with emulsifier-containing water to the desired concentration. A stated amount of the preparation of active compound of the desired concentration is pipetted onto a standardized amount of synthetic feed. In 6 replications, in each case one larva (L3) of the army worm (Spodoptera frugiperda) is placed onto the feed. After the desired period of time, the kill in % is determined. 100% means that all animals have been killed; 0% means that none of the animals have been killed.

[3] = tested on: Sphaerotheca fuliginea; assay: Sphaerotheca test (cucumber)/protective; type: in vivo; settings: Podosphaera fuliginea, 168 h, protective, application rate 100 g/ha, evaluation 7 days after inoculation, read-out: efficacy
Procedure: as §1, with “Sphaerotheca” for “Podosphaera”, “(cucumber)/protective” for “(apple)/protective”, “Sphaerotheca fuliginea.” for “the apple mildew pathogen Podosphaera leucotricha.”

[4] = physchem
[5] = tested on: apple scab pathogen Venturia inaequalis; assay: Venturia test (apple)/protective; type: in vivo; settings: 240 h, protective, application rate 100 g/ha, evaluation 10 days after inoculation, read-out: efficacy
Procedure: Venturia test (apple)/protective […] To produce a suitable preparation of active compound, 1 part by weight of active compound is mixed with the stated amounts of solvent and emulsifier, and the concentrate is diluted with water to the desired concentration. To test for protective activity, young plants are sprayed with the preparation of active compound at the stated application rate. After the spray coating has dried on, the plants are inoculated with an aqueous conidia suspension of the apple scab pathogen Venturia inaequalis and then remain in an incubation cabin at about 20° C. and 100% relative atmospheric humidity for 1 day. The plants are then placed in a greenhouse at about 21° C. and a relative atmospheric humidity of about 90%.

[6] = tested on: Erysiphe graminis f.sp. hordei; assay: Erysiphe test (barley)/protective; type: in vivo; settings: Blumeria graminis, 168 h, protective, application rate 500 g/ha, evaluation 7 days after inoculation, read-out: efficacy
Procedure: Erysiphe test (barley)/protective [table] To produce a suitable preparation of active compound, 1 part by weight of active compound is mixed with the stated amounts of solvent and emulsifier, and the concentrate is diluted with water to the desired concentration. To test for protective activity, young plants are sprayed with the preparation of active compound at the stated application rate. After the spray coating has dried on, the plants are dusted with spores of Erysiphe graminis f.sp. hordei. The plants are placed in a greenhouse at a temperature of about 20° C. and a relative atmospheric humidity of about 80% to promote the development of mildew pustules.

[7] = tested on: Phytophthora infestans; assay: whole plant or invertebrate; type: in vivo; settings: in Solanum lycopersicum, 72 h, read-out: efficacy
[8] = tested on: Leptosphaeria nodorum; assay: Leptosphaeria nodorum test (wheat)/protective; type: in vivo; settings: Parastagonospora nodorum, 240 h, protective, application rate 500 g/ha, evaluation 10 days after inoculation, read-out: efficacy
Procedure: Leptosphaeria nodorum test (wheat)/protective [table] To produce a suitable preparation of active compound, 1 part by weight of active compound is mixed with the stated amounts of solvent and emulsifier, and the concentrate is diluted with water to the desired concentration. To test for protective activity, young plants are sprayed with the preparation of active compound at the stated application rate. After the spray coating has dried on, the plants are sprayed with a spore suspension of Leptosphaeria nodorum. The plants remain in an incubation cabin at 20° C. and 100% relative atmospheric humidity for 48 hours. The plants are placed in a greenhouse at a temperature of about 15° C. and a relative atmospheric humidity of 80%.

[9] = tested on: green peach aphid (Myzus persicae); assay: Myzus test/broad beans; type: in vivo; settings: broad bean seedlings dipped, active compound concentration 100 ppm, after 6 days
Procedure: Myzus test/broad beans [table] To produce a suitable preparation of active compound, 1 part by weight of active compound is mixed with the stated amount of solvent and the stated amount of emulsifier, and the concentrate is diluted with emulsifier-containing water to the desired concentration. Broad bean seedlings (Vicia faba minor) which are infected by the green peach aphid (Myzus persicae) are dipped into a preparation of active compound of the desired concentration and placed into a plastic dish. After the desired period of time, the kill in percent is determined. 100% means that all animals have been killed; 0% means that none of the animals have been killed.

[10] = logP determination by HPLC (EEC Directive 79/831 Annex V.A8); settings: pH 2

Row | Compound | pest or weed control at 100 g/ha [1] [%] | kill rate [2] [%] | pest or weed control at 100 g/ha [3] [%] | chromatographic logP ([4]; pH 2, log P (pH 2)) | pest or weed control at 100 g/ha [5] [%] | pest or weed control at 500 g/ha [6] [%] | pest or weed control at 100 g/ha [7] [%] | pest or weed control at 500 g/ha [8] [%] | chromatographic logP ([4]; logP) | kill [9] [%] | log P (pH 2) | chromatographic logP [10]
1 | CO/N=C(/C(=O)OC)c1c(F)cccc1Oc1ncnc(Oc2cccc(Cl)c2C)c1F [Example 1, methyl {2-[6-(3-chloro-2-methylphenoxy)-5-fluoropyrimidin-4-yloxy]-6-fluorophenyl}methoxyiminoacetate] | ≥ 82 | ≥ 98 | ≥ 98 | 4.23 | ≥ 97 | ≥ 98 | – | – | – | – | – | –
2 | CNC(=O)/C(=N/OC)c1c(F)cccc1Oc1ncnc(Oc2ccccc2Cl)c1F [Example 2, 2-{2-[6-(2-chlorophenoxy)-5-fluoropyrimidin-4-yloxy]-6-fluorophenyl}-2-methoxyimino-N-methylacetamide] | ≥ 82 | – | ≥ 98 | 3.1 | ≥ 97 | – | ≥ 86 | ≥ 98 | – | – | – | –
3 | CO/N=C(/C(=O)OC)c1c(F)cccc1COc1ccccc1C [Example 8, methyl (2-fluoro-6-o-tolyloxymethylphenyl)methoxyiminoacetate] | ≥ 82 | – | ≥ 98 | 3.65 | ≥ 97 | ≥ 98 | – | – | – | – | – | –
4 | CO/N=C(/C(=O)OC)c1c(F)cccc1Oc1ncnc(Oc2cccc(Cl)c2Cl)c1F [Example 12] | ≥ 82 | – | ≥ 98 | – | ≥ 97 | ≥ 98 | ≥ 86 | – | 4.16 | – | – | –
5 | CO/N=C(/C(=O)OC)c1c(F)cccc1Oc1ncnc(Oc2ccccc2Cl)c1F [Example 14] | ≥ 82 | – | ≥ 98 | – | ≥ 97 | ≥ 98 | ≥ 86 | – | 3.73 | – | – | –
6 | CNC(=O)/C(=N/OC)c1ccc(F)cc1Oc1ncnc(Oc2ccccc2F)c1F [Example 16] | – | – | – | – | – | – | – | ≥ 98 | 3.03 | – | – | –
7 | CNC(=O)/C(=N/OC)c1ccc(F)cc1Oc1ncnc(Oc2ccc(Cl)cc2)c1F [Example 22] | – | – | – | – | – | – | – | ≥ 98 | 3.32 | – | – | –
8 | CNC(=O)/C(=N/OC)c1ccc(F)cc1Oc1ncnc(Oc2ccccc2C(F)(F)F)c1F [Example 31] | ≥ 82 | – | ≥ 98 | – | ≥ 97 | – | ≥ 86 | ≥ 98 | 3.26 | – | – | –
9 | CNC(=O)/C(=N/OC)c1ccc(F)cc1Oc1nccc(OCC(F)(F)C(F)(F)F)n1 [Example 40] | – | – | – | – | – | ≥ 98 | – | – | 2.87 | – | – | –
10 | CNC(=O)/C(=N\OC)c1c(F)cccc1Oc1ccccc1 [Example 41] | – | – | – | – | – | ≥ 98 | – | – | 2.49 | – | – | –
11 | CO/N=C(\C(=O)OC)c1c(F)cccc1Oc1ncnc(Oc2cccc(Cl)c2C)c1F [Example 42] | – | – | – | – | – | ≥ 98 | – | – | 4.41 | – | – | –
12 | CO/N=C(\C(=O)OC)c1c(F)cccc1Oc1ccccc1 [Example 43] | – | – | – | – | – | ≥ 98 | – | – | 3.42 | – | – | –
13 | CNC(=O)/C(=N/OC)c1c(F)cccc1Oc1nccc(OCC(F)(F)C(F)(F)F)n1 [Example 44] | – | – | – | – | – | ≥ 98 | – | – | 2.89 | – | – | –
14 | CNC(=O)/C(=N/OC)c1c(F)cccc1Oc1ncnc(Oc2cccc(Cl)c2C)c1F [Example 45] | ≥ 82 | – | ≥ 98 | – | ≥ 97 | – | ≥ 86 | ≥ 98 | 3.6 | – | – | –
15 | CNC(=O)/C(=N/OC)c1c(F)cccc1Oc1cc(Oc2cccc(Cl)c2Cl)ncn1 [Example 46] | ≥ 82 | – | ≥ 98 | – | ≥ 97 | – | ≥ 86 | ≥ 98 | 3.23 | – | – | –
16 | CNC(=O)/C(=N/OC)c1c(F)cccc1Oc1cc(Oc2ccccc2Cl)ncn1 [Example 47] | ≥ 82 | – | ≥ 98 | – | ≥ 97 | – | ≥ 86 | ≥ 98 | 2.79 | – | – | –
17 | CNC(=O)/C(=N/OC)c1c(F)cccc1Oc1ncnc(Oc2cccc(Cl)c2Cl)c1F [Example 48] | ≥ 82 | – | ≥ 98 | – | ≥ 97 | – | ≥ 86 | ≥ 98 | 3.5 | – | – | –
18 | CO/N=C(/C(=O)OC)c1c(F)cccc1CO/N=C(\C)c1cccc(C(F)(F)F)c1 [Example 50] | ≥ 82 | – | ≥ 98 | – | ≥ 97 | ≥ 98 | ≥ 86 | – | 4.27 | – | – | –
19 | CNC(=O)/C(=N/OC)c1c(F)cccc1CO/N=C(\C)c1cccc(C(F)(F)F)c1 [Example 51] | ≥ 82 | – | ≥ 98 | – | ≥ 97 | ≥ 98 | ≥ 86 | – | 3.71 | – | – | –
20 | CNC(=O)/C(=N\OC)c1c(F)cccc1CO/N=C(\C)c1cccc(C(F)(F)F)c1 [Example 56] | ≥ 82 | – | ≥ 98 | – | ≥ 97 | – | ≥ 86 | – | 3.8 | 100 | – | –
21 | CNC(=O)/C(=N/OC)c1c(F)cccc1Oc1cc(Oc2cccc(Cl)c2C)ncn1 [Example 57] | ≥ 82 | – | ≥ 98 | – | ≥ 97 | – | ≥ 86 | ≥ 98 | 3.24 | – | – | –
22 | CO/N=C(/C(=O)OC)c1c(F)cccc1CBr [Example (VIII-1), methyl (2-bromomethyl-6-fluorophenyl)methoxyiminoacetate] | – | – | – | 2.58 | – | – | – | – | – | – | 2.87 | –
23 | Cc1cccc(F)c1C(=O)C#N [Example (XX-1), 2-fluoro-6-methylbenzoyl cyanide] | – | – | – | – | – | – | – | – | – | – | – | 2.55
